Source: ChEMBL document CHEMBL1201862, “PubChem BioAssay data set” (2004)
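Test compounds were applied to cells in 96-well plates for 48 hours at 5 doses. GI50 = concentration required for 50% inhibition of growth.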 Calls of active or inactive are those of the source. Rule as the data show it: active = GI50 up to about 1.1 µM and inactive = higher.

Legend:
Assay in all cases: NCI tumour cell line growth inhibition, 48 h
A498 = system: A498
CAKI-1 = system: CAKI-1
CCRF-CEM = system: CCRF-CEM
HL-60 = system: HL-60
IGROV-1 = system: IGROV-1
K562 = system: K562
LOX IMVI = system: LOX IMVI
MDA-MB-231 = system: MDA-MB-231
MDA-MB-435 = system: MDA-MB-435
MOLT-4 = system: MOLT-4
OVCAR-8 = system: OVCAR-8
SF-539 = system: SF-539
SK-OV-3 = system: SK-OV-3
T47D = system: T47D
TK-10 = system: TK-10
U-251 = system: U-251
UACC-257 = system: UACC-257
UACC-62 = system: UACC-62
UO-31 = system: UO-31
A549 = system: A549

| SMILES | GI50 (A498) | GI50 (CAKI-1) | GI50 (CCRF-CEM) | GI50 (HL-60) | GI50 (IGROV-1) | GI50 (K562) | GI50 (LOX IMVI) | GI50 (MDA-MB-231) | GI50 (MDA-MB-435) | GI50 (MOLT-4) | GI50 (OVCAR-8) | GI50 (SF-539) | GI50 (SK-OV-3) | GI50 (T47D) | GI50 (TK-10) | GI50 (U-251) | GI50 (UACC-257) | GI50 (UACC-62) | GI50 (UO-31) | GI50 (A549) |
| --- | --- | --- | --- | --- | --- | --- | --- | --- | --- | --- | --- | --- | --- | --- | --- | --- | --- | --- | --- | --- |
| O=C1O[C@H](COC(=O)c2ccccc2)[C@@H](OC(=O)c2ccccc2)C=C1OC(=O)c1ccccc1 | 55.7 µM (inactive) | 23.8 µM (inactive) | 14.1 µM (inactive) | 10.5 µM (inactive) | 21.5 µM (inactive) | 24.3 µM (inactive) | 19.8 µM (inactive) | 17.5 µM (inactive) | 25 µM (inactive) | 23.1 µM (inactive) | 21.8 µM (inactive) | 17.6 µM (inactive) | > 100 µM (inactive) | 23.4 µM (inactive) | 27.9 µM (inactive) | 18.2 µM (inactive) | 25.7 µM (inactive) | 20.7 µM (inactive) | 30.9 µM (inactive) | – |
| Cc1cccc2c(N)c3cccc(C(=O)NCC[N+](C)(C)Cc4ccc(S(C)(=O)=O)cc4)c3nc12 | 10.8 µM (inactive) | 26.1 µM (inactive) | 7.03 µM (inactive) | 2.8 µM (inactive) | 27.9 µM (inactive) | 10.1 µM (inactive) | 28.8 µM (inactive) | > 81.3 µM (inactive) | > 100 µM (inactive) | 2.02 µM (inactive) | 79.6 µM (inactive) | 32.4 µM (inactive) | 33.6 µM (inactive) | 59.7 µM (inactive) | > 89.1 µM (inactive) | 45.6 µM (inactive) | > 100 µM (inactive) | > 95.9 µM (inactive) | 75.9 µM (inactive) | 1.44 µM (inactive) |
| O=C(O)CC(NC(=O)/C(=C/c1ccccc1)NC(=O)c1ccccc1)C(=O)O (centres undefined) | > 100 µM (inactive) | > 100 µM (inactive) | > 100 µM (inactive) | > 100 µM (inactive) | > 100 µM (inactive) | > 100 µM (inactive) | > 100 µM (inactive) | > 100 µM (inactive) | > 100 µM (inactive) | > 100 µM (inactive) | > 100 µM (inactive) | > 100 µM (inactive) | > 100 µM (inactive) | > 100 µM (inactive) | > 100 µM (inactive) | > 100 µM (inactive) | > 100 µM (inactive) | > 100 µM (inactive) | > 100 µM (inactive) | > 100 µM (inactive) |
| C#C[C@]1(O)CC[C@H]2[C@@H]3CCC4=C/C(=N/OC(=O)c5cccc6c(=O)c7ccccc7[nH]c56)CCC4[C@H]3CC[C@@]21CC (some centres undefined) | 10.1 µM (inactive) | 32.4 µM (inactive) | 8.05 µM (inactive) | 2.44 µM (inactive) | 27.3 µM (inactive) | 10.9 µM (inactive) | 15.7 µM (inactive) | 54.8 µM (inactive) | 26.5 µM (inactive) | 4.3 µM (inactive) | 19.8 µM (inactive) | – | 63.1 µM (inactive) | 24.8 µM (inactive) | > 100 µM (inactive) | 9.89 µM (inactive) | 11.3 µM (inactive) | 20.4 µM (inactive) | 23.2 µM (inactive) | 41.7 µM (inactive) |
| O=C(Nc1cccc2ccccc12)c1cc2ccccc2oc1=O | 47.9 µM (inactive) | 48 µM (inactive) | > 100 µM (inactive) | > 100 µM (inactive) | 18.5 µM (inactive) | > 100 µM (inactive) | > 100 µM (inactive) | 23.6 µM (inactive) | > 100 µM (inactive) | > 100 µM (inactive) | 39.4 µM (inactive) | 14.6 µM (inactive) | 30.2 µM (inactive) | > 100 µM (inactive) | – | 34 µM (inactive) | > 100 µM (inactive) | > 100 µM (inactive) | – | > 100 µM (inactive) |
| COC1C(=O)CCC2(CO2)C1(O)C1(C)OC1CCC(C)C (centres undefined) | > 100 µM (inactive) | > 100 µM (inactive) | 40.4 µM (inactive) | 42.8 µM (inactive) | 48.1 µM (inactive) | 32.5 µM (inactive) | – | 15.6 µM (inactive) | 61.1 µM (inactive) | 40.1 µM (inactive) | 28 µM (inactive) | > 100 µM (inactive) | > 100 µM (inactive) | 52.8 µM (inactive) | – | 13.5 µM (inactive) | > 100 µM (inactive) | 36.2 µM (inactive) | > 100 µM (inactive) | – |
| CCOC(=O)c1[nH]c2cccc3c2c1CC(Br)C3=O (centres undefined) | 17.7 µM (inactive) | 11.2 µM (inactive) | 3.83 µM (inactive) | 2.94 µM (inactive) | 5.86 µM (inactive) | – | 15.7 µM (inactive) | 18.5 µM (inactive) | 11.7 µM (inactive) | 2.71 µM (inactive) | 16.6 µM (inactive) | 16.4 µM (inactive) | 22.7 µM (inactive) | 15.9 µM (inactive) | 14.6 µM (inactive) | 14.9 µM (inactive) | 14.4 µM (inactive) | – | 6.21 µM (inactive) | 17.3 µM (inactive) |
| O=C(CCC1CCCCC1)NCc1ccc(C(=O)O)cc1 | > 100 µM (inactive) | > 100 µM (inactive) | 47.1 µM (inactive) | – | > 100 µM (inactive) | > 100 µM (inactive) | > 100 µM (inactive) | > 100 µM (inactive) | > 100 µM (inactive) | > 100 µM (inactive) | > 100 µM (inactive) | > 100 µM (inactive) | > 100 µM (inactive) | > 100 µM (inactive) | > 100 µM (inactive) | > 100 µM (inactive) | > 100 µM (inactive) | > 100 µM (inactive) | > 100 µM (inactive) | > 100 µM (inactive) |
| C=CCOC(=O)N1c2ccc(O)cc2[C@@]23O[C@@]24[C@@H]1C#C/C=C\C#C[C@]3(O)C(OC)(OC)C[C@@H]4C | 25.5 µM (inactive) | 53.6 µM (inactive) | 23.6 µM (inactive) | 32.8 µM (inactive) | 25.8 µM (inactive) | 34.8 µM (inactive) | – | 23.6 µM (inactive) | 15.1 µM (inactive) | 16.3 µM (inactive) | 32.5 µM (inactive) | 21.6 µM (inactive) | 61 µM (inactive) | > 100 µM (inactive) | 29.9 µM (inactive) | 33.5 µM (inactive) | 19.1 µM (inactive) | 33.7 µM (inactive) | 37.2 µM (inactive) | 50.5 µM (inactive) |
| NS(=O)(=O)c1nnc(NS(=O)(=O)c2ccc(F)cc2)s1 | > 100 µM (inactive) | > 100 µM (inactive) | > 100 µM (inactive) | – | – | > 100 µM (inactive) | > 100 µM (inactive) | > 100 µM (inactive) | > 100 µM (inactive) | > 100 µM (inactive) | > 100 µM (inactive) | > 100 µM (inactive) | > 100 µM (inactive) | > 100 µM (inactive) | > 100 µM (inactive) | > 100 µM (inactive) | > 100 µM (inactive) | > 100 µM (inactive) | > 100 µM (inactive) | > 100 µM (inactive) |
| COC(=O)C(CNC(=O)/C=C/c1ccc(OC(C)=O)c(OC(C)=O)c1)NC(=O)/C=C/c1ccc(OC(C)=O)c(OC(C)=O)c1 (centres undefined) | > 100 µM (inactive) | > 100 µM (inactive) | 42.4 µM (inactive) | – | > 100 µM (inactive) | 64.1 µM (inactive) | > 100 µM (inactive) | > 100 µM (inactive) | > 100 µM (inactive) | 30 µM (inactive) | > 100 µM (inactive) | > 100 µM (inactive) | 57.5 µM (inactive) | 77.3 µM (inactive) | > 100 µM (inactive) | 88.7 µM (inactive) | > 100 µM (inactive) | > 100 µM (inactive) | > 100 µM (inactive) | > 100 µM (inactive) |
| CO/C=C(/C(=O)OC)c1ccccc1[C@H]1C[C@@H]1c1ccccc1 | 27.9 µM (inactive) | 16 µM (inactive) | 10.6 µM (inactive) | 21.9 µM (inactive) | 19.9 µM (inactive) | 26.2 µM (inactive) | – | 31.6 µM (inactive) | 17.8 µM (inactive) | 30.1 µM (inactive) | 28.7 µM (inactive) | 21.2 µM (inactive) | 16.7 µM (inactive) | 18.6 µM (inactive) | 28 µM (inactive) | 23.1 µM (inactive) | 15.8 µM (inactive) | 14.9 µM (inactive) | 29.4 µM (inactive) | 21.1 µM (inactive) |
| CC(=O)O[C@H]1C(=O)[C@@]2(C)[C@H]([C@H](OC(=O)c3ccccc3)[C@]3(O)C[C@H](OC(=O)[C@H](O)[C@@H](NC(=O)OC(C)(C)C)c4ccco4)C(C)=C1C3(C)C)[C@]1(OC(C)=O)CO[C@@H]1C[C@@H]2O | 2.47 µM (inactive) | 0.00802 µM (active) | < 0.005 µM (active) | < 0.005 µM (active) | 0.00682 µM (active) | < 0.005 µM (active) | 0.00546 µM (active) | < 0.005 µM (active) | < 0.005 µM (active) | 0.00667 µM (active) | 0.00615 µM (active) | 0.00553 µM (active) | < 0.005 µM (active) | 0.264 µM (active) | 0.0116 µM (active) | 0.00661 µM (active) | 11.1 µM (inactive) | 0.0129 µM (active) | 0.0105 µM (active) | < 0.005 µM (active) |
| O=C(/C=C/c1ccccc1)c1cc(CN2CCOCC2)c(O)c(CN2CCOCC2)c1 | 12.9 µM (inactive) | 2.26 µM (inactive) | 2.71 µM (inactive) | 4.57 µM (inactive) | > 100 µM (inactive) | 5.47 µM (inactive) | 4.65 µM (inactive) | 18.2 µM (inactive) | 14.5 µM (inactive) | 16.7 µM (inactive) | 25.2 µM (inactive) | 15.1 µM (inactive) | – | 20 µM (inactive) | 20.6 µM (inactive) | 4.51 µM (inactive) | 14.3 µM (inactive) | 17 µM (inactive) | 15.4 µM (inactive) | 17.9 µM (inactive) |
